Legend:
fibroblast cell culture = assay: Monomer cytotoxicity, Alamar Blue Assay in fibroblast cell culture; conditions: monomer concentration at which resorufin production was reduced to 50% of control, n=3
Text: This assay incorporated a fluorometric/colormetric growth indicator based on detection of metabolic activity.

in vitro = assay: in vitro
Description: (§1) The effects of each of vinyl ester 4V, acrylate 4A, and meth-acrylate 4M on osteoblastic MC3T3-E1 cells in vitro was tested by the MTT assay method. The osteoblastic MC3T3-E1 cells were cultured for five days in the presence of each of vinyl ester (4V), acrylate (4A), and meth-acrylate (4M).
(§2) Cytotoxicity of the newly synthesized monomers and the reference substances together with the thiols and photoinitiator used was examined in osteoblast cell culture by using an Alamar Blue Assay. This assay incorporates a fluorometric/colormetric growth indicator based on the detection of metabolic activity. 1M solutions of the monomers, thiols, and photoinitiator in DMSO (HYBRI-MAX®, Sigma) were prepared. […] For experiments, cells [osteoblasts taken of the strain C57BL/6 of mus musculus (ATCC Catalog No. CRL-2593, MC3T3-E1, Subclone 4)] were cultured in 100 μl DMEM Medium supplemented with 10% FCS, 100 U/ml Penicillin, and 100 μg/ml Streptomycin, in 96-well plates at a density of 6.4×10^3 cells well^−1 for 24 hours in humidified air (95% relative humidity) with 5% CO2 at 37° C. The next day, the cells were treated with 100 μL of the different concentrations of the monomers for 5 days in triplicates. 10 μL of resazurin were added and the cells incubated for 4 hours at 37° C. The fluorescence intensity was measured for excitation at 530 nm and emission at 580 nm and compared to untreated cells (cells+medium). As control groups cells treated with 1% DMSO-solution, a blank value, and PBS-puffer were used.

[1] = Photoreactivity by photo-DSC: time to reach the maximum of the polymerization heat; assay type: physicochemical
Description: The compositions which are embodiments of the present invention were compared to acrylate and methacrylate based polymer systems as comparative examples.
The reactivity towards photopolymerization was tested with the help of photo-DSC (differential scanning calorimetry). The measurements were carried out using 2 wt % of 2-hydroxy-1-[4-(2-hydroxyethoxy)phenyl]-2-methyl-1-propanone (Irgacure 2959, Ciba SC) as photoinitiator.

[2] = system: osteoblastic MC3T3-E1 cells; assay: in vitro; conditions: read-out: LC50; MC3T3-E1 cells cultured five days with monomer; n=3
Description: as §1, §2

[3] = PEG600 monomer series, 0% TMP700
[4] = PEG600 monomer series, 10% TMP700
[5] = PEG600 monomer series, 20% TMP700
[6] = PEG600 monomer series, 40% TMP700
[7] = Butanediol monomer series, 0% TMP700
[8] = Butanediol monomer series, 0% TT
[9] = Butanediol monomer series, 10% TMP700
[10] = Butanediol monomer series, 10% TT
[11] = Butanediol monomer series, 20% TMP700
[12] = Butanediol monomer series, 20% TT
[13] = Butanediol monomer series, 40% TMP700
[14] = Butanediol monomer series, 40% TT
[15] = PEG200 monomer series, 0% TMP700
[16] = PEG200 monomer series, 10% TMP700
[17] = PEG200 monomer series, 20% TMP700
[18] = PEG200 monomer series, 40% TMP700

| Molecule | IC50 [mM] (TC50 values of various monomers) (fibroblast cell culture) | time to reach the maximum of the polymerization heat [1, 7] [s] | time to reach the maximum of the polymerization heat [1, 8] [s] | time to reach the maximum of the polymerization heat [1, 9] [s] | time to reach the maximum of the polymerization heat [1, 10] [s] | time to reach the maximum of the polymerization heat [1, 11] [s] | time to reach the maximum of the polymerization heat [1, 12] [s] | time to reach the maximum of the polymerization heat [1, 13] [s] | time to reach the maximum of the polymerization heat [1, 14] [s] | other results |
| --- | --- | --- | --- | --- | --- | --- | --- | --- | --- | --- |
| C=COC(=O)COCCOCCOCC(=O)OC=C [TUVE, ω,ω′-3,6,9-trioxaundecanedioic acid divinyl ester] | 2.5 | – | – | – | – | – | – | – | – | – |
| O=C(CCS)OCC(COC(=O)CCS)(COC(=O)CCS)COC(=O)CCS [PTM, pentaerythritol tetra(3-mercaptopropionate)] | 10 | – | – | – | – | – | – | – | – | CC50 at 5 days (in vitro; C57BL/6, mouse, osteoblastic MC3T3-E1 cells (Subclone 4, ATCC CRL-2593)): > 10000 µM |
| Poly(ethylene glycol) dimethacrylate, MG 600 [PEG600 Methacrylate] | – | – | – | – | – | – | – | – | – | time to reach the maximum of the polymerization heat [1, 3]: 10.5 s; time to reach the maximum of the polymerization heat ([1]; PEG600 monomer series, 0% TT): 10.5 s; time to reach the maximum of the polymerization heat [1, 4]: 27.0 s; time to reach the maximum of the polymerization heat ([1]; PEG600 monomer series, 10% TT): 26.3 s; time to reach the maximum of the polymerization heat [1, 5]: 31.2 s; time to reach the maximum of the polymerization heat ([1]; PEG600 monomer series, 20% TT): 31.2 s; time to reach the maximum of the polymerization heat [1, 6]: 30.6 s; time to reach the maximum of the polymerization heat ([1]; PEG600 monomer series, 40% TT): 24.9 s |
| C=COC(=O)CCCCC(=O)OC=C [AVE, adipic acid divinyl ester] | 10 | 4.9 | 4.9 | 8.4 | 7.7 | 2.9 | 5.8 | 2.1 | 2.1 | – |
| C=C(C)C(=O)OCCOCCOCCOCCOC(=O)C(=C)C [TTEGDMA, Tetra(ethylene glycol) dimethacrylate] | <0.16 | – | – | – | – | – | – | – | – | time to reach the maximum of the polymerization heat [1, 15]: 12.6 s; time to reach the maximum of the polymerization heat ([1]; PEG200 monomer series, 0% TT): 12.6 s; time to reach the maximum of the polymerization heat [1, 16]: 56.0 s; time to reach the maximum of the polymerization heat ([1]; PEG200 monomer series, 10% TT): 51.5 s; time to reach the maximum of the polymerization heat [1, 17]: 55.1 s; time to reach the maximum of the polymerization heat ([1]; PEG200 monomer series, 20% TT): 58.3 s; time to reach the maximum of the polymerization heat [1, 18]: 46.9 s; time to reach the maximum of the polymerization heat ([1]; PEG200 monomer series, 40% TT): 54.0 s |
| C=CC(=O)OCCOCCOCCOCCOC(=O)C=C [TTEGDAc, Tetra(ethylene glycol) diacrylate] | <0.16 | – | – | – | – | – | – | – | – | time to reach the maximum of the polymerization heat [1, 15]: 2.6 s; time to reach the maximum of the polymerization heat ([1]; PEG200 monomer series, 0% TT): 2.6 s; time to reach the maximum of the polymerization heat [1, 16]: 3.6 s; time to reach the maximum of the polymerization heat ([1]; PEG200 monomer series, 10% TT): 3.5 s; time to reach the maximum of the polymerization heat [1, 17]: 3.6 s; time to reach the maximum of the polymerization heat ([1]; PEG200 monomer series, 20% TT): 3.3 s; time to reach the maximum of the polymerization heat [1, 18]: 3.4 s; time to reach the maximum of the polymerization heat ([1]; PEG200 monomer series, 40% TT): 3.3 s |
| C=CC(=O)OCCCCOC(=O)C=C [Butanediol Acrylate, 1,4-Butanediol-di-acrylate] | – | 2.7 | 2.7 | 2.9 | 2.5 | 3.5 | 2.8 | 3.5 | 2.7 | CC50 [2]: < 160 µM |
| C=C(C)C(=O)OCCCCOC(=O)C(=C)C [Butanediol Methacrylate, 1,4-Butanediol di-methacrylat] | – | 28.6 | 28.6 | 90.2 | 87.6 | 85.4 | 83.8 | 75.0 | 55.0 | CC50 (in vitro): 1300 µM |
| Poly(ethylene glycol) diacrylate, MG 600 [PEG600 Acrylate] | – | – | – | – | – | – | – | – | – | time to reach the maximum of the polymerization heat [1, 3]: 3.2 s; time to reach the maximum of the polymerization heat ([1]; PEG600 monomer series, 0% TT): 3.2 s; time to reach the maximum of the polymerization heat [1, 4]: 3.8 s; time to reach the maximum of the polymerization heat ([1]; PEG600 monomer series, 10% TT): 3.2 s; time to reach the maximum of the polymerization heat [1, 5]: 3.7 s; time to reach the maximum of the polymerization heat ([1]; PEG600 monomer series, 20% TT): 3.0 s; time to reach the maximum of the polymerization heat [1, 6]: 3.2 s; time to reach the maximum of the polymerization heat ([1]; PEG600 monomer series, 40% TT): 3.0 s |
| C=COC(=O)OCCCCOC(=O)OC=C [Butanediol Vinyl carbonate, 1,4-butanediol divinyl carbonate] | – | 3.3 | 3.3 | 6.1 | 7.1 | 4.4 | 3.0 | 2.1 | 2.4 | – |
